Assay [1] concerns the target SAE1 (Homo sapiens (Human), UniProt Q9UBT2). The experiment in a line: SAE High Throughput Biochemical Assay (HTRF), 15 min preincubation. Particulars: SAE1 12.5 nM, ATP 100 μM. In a few lines: (§1)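 HTRF detection of SUMO transfer from SUMO-GST to UBC9-His (40 nM each) by SAE1 at 12.5 nM used 100 μM ATP in pH 7.5 HEPES buffer with 10 mM MgCl2 and 0.1% BSA. Enzyme and compound were preincubated 15 min at RT and the reaction ran 45 min, with readings after 2 h and overnight.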

Assay [2] relates to sumoylation levels (SUMO 2/3 conjugates) in HCT-116 cells. Nature of the assay: HCT-116 4 Hour Cell Assay (Western, SUMO 2/3 conjugates). Particulars: Homo sapiens, HCT-116, 4 h, 4 h treatment, Anti-Sumo 2-3 immunoblot, read-out: HCT-116 Western 4 h IC50 (μM) Ave. The class given is cell-based. In a few lines:
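IC50 derived from fluorescent immunoblot quantification of SUMO 2/3 conjugate bands, normalized to total protein, after non-reducing SDS-PAGE. Lysis used RIPA plus NEM; exposure was 4 h across 11 concentrations, three-fold serial dilution starting at 25 μM.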
(In general: In western blotting, separated proteins are transferred to a membrane and probed.)

The target in assay [3] is SAE1 (Homo sapiens (Human), UniProt Q9UBE0+Q9UBT2). The experiment in a line: SAE High Throughput Biochemical Assay (HTRF), 15 min preincubation. To be noted: read-out: 15 min preincubation HTRF IC50 (μM) Ave, SAE1 12.5 nM, ATP 100 μM. In a few lines: as §1
Chain of SAE1 (Homo sapiens (Human), UniProt Q9UBE0+Q9UBT2) (Q9UBE0 whole entry): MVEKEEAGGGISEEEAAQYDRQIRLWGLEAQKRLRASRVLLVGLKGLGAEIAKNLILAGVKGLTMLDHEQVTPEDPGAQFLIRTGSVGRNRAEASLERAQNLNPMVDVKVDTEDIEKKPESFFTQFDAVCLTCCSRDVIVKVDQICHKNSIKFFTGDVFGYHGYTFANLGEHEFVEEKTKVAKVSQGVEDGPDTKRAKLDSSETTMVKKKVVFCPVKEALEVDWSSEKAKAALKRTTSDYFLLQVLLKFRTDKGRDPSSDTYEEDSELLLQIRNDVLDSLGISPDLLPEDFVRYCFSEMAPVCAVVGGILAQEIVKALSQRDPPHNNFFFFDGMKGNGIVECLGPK
Chain of SAE1 (Homo sapiens (Human), UniProt Q9UBE0+Q9UBT2) (Q9UBT2 whole entry): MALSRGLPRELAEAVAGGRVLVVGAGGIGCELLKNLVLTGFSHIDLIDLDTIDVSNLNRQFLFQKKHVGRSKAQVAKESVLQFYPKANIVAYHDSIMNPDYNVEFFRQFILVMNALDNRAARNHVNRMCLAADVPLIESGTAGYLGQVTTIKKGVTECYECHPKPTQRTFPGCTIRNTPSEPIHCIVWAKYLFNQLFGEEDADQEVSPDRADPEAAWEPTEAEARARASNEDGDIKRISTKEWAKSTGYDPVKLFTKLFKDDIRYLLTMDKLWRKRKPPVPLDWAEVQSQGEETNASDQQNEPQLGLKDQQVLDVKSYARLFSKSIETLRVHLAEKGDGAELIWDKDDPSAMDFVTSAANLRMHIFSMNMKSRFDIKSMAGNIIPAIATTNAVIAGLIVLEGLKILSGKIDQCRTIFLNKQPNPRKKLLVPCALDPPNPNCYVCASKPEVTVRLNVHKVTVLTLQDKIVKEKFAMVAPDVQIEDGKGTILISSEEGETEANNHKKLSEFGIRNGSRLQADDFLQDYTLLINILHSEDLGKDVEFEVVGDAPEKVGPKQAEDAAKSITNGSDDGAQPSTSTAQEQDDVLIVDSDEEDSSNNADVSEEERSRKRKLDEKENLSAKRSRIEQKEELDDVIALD

Chain of SAE1 (Homo sapiens (Human), UniProt Q9UBT2) (Q9UBE0 whole entry): as the sequence (Q9UBE0 whole entry) above
Chain of SAE1 (Homo sapiens (Human), UniProt Q9UBT2) (Q9UBT2 whole entry): as the sequence (Q9UBT2 whole entry) above

For `CCOC/C=C/C(=O)N1Cc2sc(C#N)cc2[C@H](c2ccccc2-c2cn(CC)nc2C(F)(F)F)C1` [Example 8, (S, E)-6-(4-Ethoxybut-2-enoyl)-4-(2-(1-ethyl-3-(trifluoromethyl)-1 H-pyrazol-4-yl)phenyl)-4,5,6,7 tetrahydrothieno[2,3-c]pyridine-2-carbonitrile], at SAE1 [1], half-maximal inhibition (IC50) was put at 10800 nM.

In turn, `CCn1cc(-c2ccccc2[C@@H]2CN(C(=O)/C=C/C(N)C3CC3)Cc3sc(C#N)cc32)c(C(F)(F)F)n1` (stereo partly drawn) [Example 42, (4S)-6-((E)-4-amino-4-cyclopropylbut-2-enoyl)-4-(2-(1-ethyl-3-(trifluoromethyl)-1 H-pyrazol-4-yl)phenyl)-4,5,6,7-tetrahydrothieno[2,3-c]pyridine-2-carbonitrile] yielded an IC50 on SAE1 [1] of 8390 nM.

On to `CCn1cc(-c2c(F)cccc2[C@@H]2CN(C(=O)/C=C\CN(C)C)Cc3sc(C#N)c(C)c32)c(C(F)(F)F)n1` [Compound 223], for which the IC50 in assay [2] came to 0.0473 µM; at SAE1 [1], 52 nM.

Molecule `CCn1cc(-c2ccccc2[C@@H]2CN(C(=O)/C=C/CN(C)OC)Cc3sc(C#N)cc32)c(C(F)(F)F)n1` [Example 11, (S, E)-4-(2-(1-Ethyl-3-(trifluoromethyl)-1 H-pyrazol-4-yl)phenyl)-6-(4-(methoxy(methyl)amino)but-2-enoyl)-4,5,6,7-tetrahydrothieno[2,3-c]pyridine-2-carbonitrile] returned an IC50 on SAE1 [1] of over 25000 nM.

Molecule `CCC(N)/C=C/C(=O)N1Cc2sc(C#N)cc2[C@H](c2ccccc2-c2cn(CC)nc2C(F)(F)F)C1` (stereo partly drawn) [Example 39, (4S)-6-((E)-4-aminohex-2-enoyl)-4-(2-(1-ethyl-3-(trifluoromethyl)-1 H-pyrazol-4-yl)phenyl)-4,5,6,7-tetrahydrothieno[2,3-c]pyridine-2-carbonitrile] yielded an IC50 at SAE1 [1] of 8560 nM.

On to `CCn1cc(-c2ccccc2[C@@H]2CN(C(=O)/C=C/CCNC)Cc3sc(C#N)cc32)c(C(F)(F)F)n1` [Example 45, (S, E)-4-(2-(1-ethyl-3-(trifluoromethyl)-1 H-pyrazol-4-yl)phenyl)-6-(5-(methylamino)pent-2-enoyl)-4,5,6,7-tetrahydrothieno[2,3-c]pyridine-2-carbonitrile], for which the midpoint of inhibition against SAE1 [1], the IC50, lay at 23200 nM.

For the molecule `CCn1cc(-c2cc(C(=O)NC)ccc2C2CN(C(=O)/C=C/CN(C)C)Cc3sc(C#N)cc32)c(C(F)(F)F)n1` (centres unmarked) [Example 208, (E)-4-(2-Cyano-6-(4-(dimethylamino)but-2-enoyl)-4,5,6,7-tetrahydrothieno[2,3-c]pyridin-4-yl)-3-(1-ethyl-3-(trifluoromethyl)-1 H pyrazol-4-yl)-N-methylbenzamide], the IC50 against SAE1 [1] is over 25000 nM.

On to `CCn1cc(-c2ccccc2[C@@H]2CN(C(=O)/C=C/CNC3(C)CNC3)Cc3sc(C#N)cc32)c(C(F)(F)F)n1` [Example 98, (S,E)-4-(2-(1-Ethyl-3-(trifluoromethyl)-1H pyrazol-4-yl)phenyl)-6-(4-((3-methylazetidin-3-yl)amino)but-2-enoyl)-4,5,6,7-tetrahydrothieno[2,3-c]pyridine-2-carbonitrile], for which the IC50 on SAE1 [1] was over 25000 nM.

`CCn1cc(-c2ccccc2[C@@H]2CN(C(=O)/C=C/C3CNC3)Cc3sc(C#N)cc32)c(C(F)(F)F)n1` [Example 108, (S, E)-6-(3-(Azetidin-3-yl)acryloyl)-4-(2-(1-ethyl-3-(trifluoromethyl)-1 H-pyrazol-4-yl)phenyl)-4,5,6,7-tetrahydrothieno[2,3-c]pyridine-2-carbonitrile] came in with an IC50 at SAE1 [1] of 11000 nM.

As to `CCn1cc(-c2ccccc2[C@@H]2CN(C(=O)/C=C/C3CCCN3)Cc3sc(C#N)cc32)c(C(F)(F)F)n1` (stereo partly drawn) [Example 107, (4S)-4-(2-(1-Ethyl-3-(trifluoromethyl)-1 H-pyrazol-4-yl)phenyl)-6-((E)-3-(pyrrolidin-2-yl)acryloyl)-4,5,6,7-tetrahydrothieno[2,3-c]pyridine-2-carbonitrile], the IC50 in assay [2] stood at 0.226 µM; at SAE1 [3], 2.07 µM.

At SAE1 [1], `CCC(/C=C/C(=O)N1Cc2sc(C#N)cc2[C@H](c2ccccc2-c2cn(CC)nc2C(F)(F)F)C1)N(C)C` (stereo partly drawn) [Example 24, (4S)-6-((E)-4-(dimethylamino)hex-2-enoyl)-4-(2-(1-ethyl-3-(trifluoromethyl)-1 H-pyrazol-4-yl)phenyl)-4,5,6,7-tetrahydrothieno[2,3-c]pyridine-2-carbonitrile] yielded an IC50 of over 25000 nM.

Consider `Cc1c(C#N)sc2c1[C@H](c1cccc(F)c1-c1c[nH]nc1C(F)(F)F)CN(C(=O)/C=C/CN(C)C)C2` [Compound 221], for which the IC50 in assay [2] came to 0.134 µM; at SAE1 [3], 0.347 µM.

On to `CCn1cc(-c2ccccc2[C@@H]2CN(C(=O)C#CCN)Cc3sc(C#N)cc32)c(C(F)(F)F)n1` [Example 135, (S)-6-(4-Aminobut-2-ynoyl)-4-(2-(1-ethyl-3-(trifluoromethyl)-1H pyrazol-4-yl)phenyl)-4,5,6,7-tetrahydrothieno[2,3-c]pyridine-2-carbonitrile], for which the IC50 in assay [2] worked out at 1.2 µM; on SAE1 [3], 0.51 µM.

On to `CCn1cc(-c2c(F)cc(F)cc2C2CN(C(=O)/C=C/CN(C)C)Cc3sc(C#N)cc32)c(C(F)(F)F)n1` (centres unmarked) [Example 183, (E)-6-(4-(Dimethylamino)but-2-enoyl)-4-(2-(1-ethyl-3-(trifluoromethyl)-1 H-pyrazol-4-yl)-3,5-difluorophenyl)-4,5,6,7-tetrahydrothieno[2,3-c]pyridine-2-carbonitrile], for which the IC50 in assay [2] amounted to 0.321 µM; at SAE1 [3] it was 2.16 µM.

`CCn1cc(-c2ccc(F)cc2C2CN(C(=O)/C=C/CN(C)C)Cc3sc(C#N)cc32)c(C(F)(F)F)n1` (centres unmarked) [Example 180, (E)-6-(4-(Dimethylamino)but-2-enoyl)-4-(2-(1-ethyl-3-(trifluoromethyl)-1 H-pyrazol-4-yl)-5-fluorophenyl)-4,5,6,7-tetrahydrothieno[2,3-c]pyridine-2-carbonitrile]: the figures for the IC50 (in assay [2]; at SAE1 [3]) were 1.15 µM and 5.29 µM, respectively.

Regarding `CCCCNC/C=C/C(=O)N1Cc2sc(C#N)cc2[C@H](c2ccccc2-c2cn(CC)nc2C(F)(F)F)C1` [Example 103, (S, E)-6-(4-(Butylamino)but-2-enoyl)-4-(2-(1-ethyl-3-(trifluoromethyl)-1 H-pyrazol-4-yl)phenyl)-4,5,6,7-tetrahydrothieno[2,3-c]pyridine-2-carbonitrile], the IC50 in assay [2] was 1.66 µM; on SAE1 [3], 2.66 µM.

For the molecule `CCn1cc(C2=C(C3CN(C(=O)/C=C/CN(C)C)Cc4sc(C#N)cc43)CCCC2)c(C(F)(F)F)n1` (centres unmarked) [Example 181, (E)-6-(4-(Dimethylamino)but-2-enoyl)-4-(2-(1-ethyl-3-(trifluoromethyl)-1 H-pyrazol-4-yl)cyclohex-1-en-1-yl)-4,5,6,7-tetrahydrothieno[2,3-c]pyridine-2-carbonitrile], the IC50 in assay [2] stood at 0.878 µM; on SAE1 [3], 3.16 µM.

For the molecule `CCn1cc(-c2ccccc2[C@@H]2CN(C(=O)/C=C/C(N)Cc3ccccc3)Cc3sc(C#N)cc32)c(C(F)(F)F)n1` (stereo partly drawn) [Example 44, (4S)-6-((E)-4-amino-5-phenylpent-2-enoyl)-4-(2-(1-ethyl-3-(trifluoromethyl)-1 H-pyrazol-4-yl)phenyl)-4,5,6,7-tetrahydrothieno[2,3-c]pyridine-2-carbonitrile], the IC50 on SAE1 [1] is 9860 nM.

Regarding `CCn1cc(-c2c(F)cccc2[C@@H]2CN(C(=O)/C=C/[C@H]3CCN3)Cc3sc(C#N)cc32)c(C(F)(F)F)n1` [Example 54, (S)-6-((E)-3-((R)-azetidin-2-yl)acryloyl)-4-((S)-2-(1-ethyl-3-(trifluoromethyl)-1 H-pyrazol-4-yl)-3-fluorophenyl)-4,5,6,7-tetrahydrothieno[2,3-c]pyridine-2-carbonitrile], the IC50 was determined as 0.57 µM in assay [2] and 0.55 µM on SAE1 [3].

In the case of `CCn1cc(-c2ccccc2[C@@H]2CN(C(=O)/C=C/CNC3CC3)Cc3sc(C#N)cc32)c(C(F)(F)F)n1` [Example 102, (S, E)-6-(4-(Cyclopropylamino)but-2-enoyl)-4-(2-(1-ethyl-3-(trifluoromethyl)-1 H-pyrazol-4-yl)phenyl)-4,5,6,7-tetrahydrothieno[2,3-c]pyridine-2-carbonitrile], the IC50 in assay [2] came to 0.675 µM; at SAE1 [3], 1.74 µM.

In the case of `CCn1cc(-c2ccccc2[C@@H]2CN(C(=O)/C=C/[C@H](C)N(C)C)Cc3sc(C#N)cc32)c(C(F)(F)F)n1` [Example 13, (S)-6-((S, E)-4-(dimethylamino)pent-2-enoyl)-4-(2-(1-ethyl-3-(trifluoromethyl)-1 H-pyrazol-4-yl)phenyl)-4,5,6,7-tetrahydrothieno[2,3-c]pyridine-2-carbonitrile], the IC50 against SAE1 [1] stood at 6220 nM.

On to `CCn1cc(-c2cc(NS(C)(=O)=O)ccc2C2CN(C(=O)/C=C/CN(C)C)Cc3sc(C#N)cc32)c(C(F)(F)F)n1` (centres unmarked) [Example 193, (E)-N-(4-(2-Cyano-6-(4-(dimethylamino)but-2-enoyl)-4,5,6,7-tetrahydrothieno[2,3-c]pyridin-4-yl)-3-(1-ethyl-3-(trifluoromethyl)-1 H-pyrazol-4-yl)phenyl)methanesulfonamide], for which the IC50 in assay [2] stood at 8.85 µM; at SAE1 [3] it was 9.08 µM.

For the molecule `CC[C@H]1CNC(/C=C/C(=O)N2Cc3sc(C#N)cc3[C@H](c3cccc(F)c3-c3cn(CC)nc3C(F)(F)F)C2)C1` (stereo partly drawn) [Example 252, (S)-4-((S)-2-(1-ethyl-3-(trifluoromethyl)-1 H-pyrazol-4-yl)-3-fluorophenyl)-6-((E)-3-((2S,4R)-4-ethylpyrrolidin-2-yl)acryloyl)-4,5,6,7-tetrahydrothieno[2,3-c]pyridine-2-carbonitrile], the values for the IC50 (in assay [2]; on SAE1 [3]) were 0.288 µM and 0.39 µM, respectively.

As usually defined, the IC50 is the concentration at which inhibition is half-maximal.

(Values after patent US20240360148A1 (SUVALENT THERAPEUTICS, INC., priority 2021, published 2024).)
